Source: the NIST ThermoML archive (doi:10.1021/je800404f)
± gives the expanded uncertainty stated by the source.

Assay: refractive index (Na D-line) (dimensionless)
Settings: 295.1 K; 101.33 kPa; Liquid; Standard Abbe refractometry

First: CC#N [acetonitrile]
Second: O [water]
The refractive index of the first is higher: 1.3441 ± 0.0024 for the first, 1.333 ± 0.0024 for the second.

First: CCCCCCC(=O)O [heptanoic acid]
Second: CCCCCCCCCO [nonan-1-ol]
The refractive index of the first is lower: 1.4175 ± 0.0024 for the first, 1.4322 ± 0.0024 for the second.
